Structures can show the parent of a compound that is named as a salt. Where two headings read alike, the source gives them in different places.
What was measured:
[1] = tablets, 60° C. closed glass bottle
[2] = for appearance: 60° C., closed glass bottle; for appearance / agglomerates of the salt as produced: immediately after production (general description); for formation of agglomerates after long storage: above all dry storage (general description); for agglomerates after storage: storage in a closed glass bottle (general description, time not stated)
[3] = Determination of solubility; conditions: for pH of the saturated solution / solubility: one-hour storage at 37° C.; for solubility: HPLC; for solubility in words: general description
[4] = Particle size distribution by laser diffraction; conditions: for d(0.1) ± SD / d(0.5) ± SD / d(0.9) ± SD: average of three measurement cycles, dispersant low-viscosity paraffin
[5] = Determination of hygroscopicity (storage in humidity chambers); assay type: physicochemical; conditions: storage below 93% humidity, room temperature
[6] = for appearance / total content of chemical contaminations / water content: 40° C./75% relative humidity, open glass bottle; for appearance after storage under humid conditions: 40° C., 75% relative humidity in an open glass bottle (general description, time not stated)
[7] = Direct compression without mannitol, 4 weeks
[8] = Direct compression without mannitol, initial value
[9] = Granulation 1 with mannitol (55%), 4 weeks
[10] = Granulation 1 with mannitol (55%), initial value
[11] = Granulation 2 without mannitol, 4 weeks
[12] = Granulation 2 without mannitol, initial value
[13] = Granulation 1 with mannitol (55%)

appearance ([2]; 4 weeks)	appearance ([2]; 8 weeks)	appearance ([2]; 12 weeks)	formation of agglomerates after long storage [2]	pH of the saturated solution ([3]; 0.1 N HCl)	pH of the saturated solution ([3]; Demineralized water)	fraction ≦ 250 μm [4] [%]	d(0.1) ± SD [4] [μm]	d(0.5) ± SD [4] [μm]	d(0.9) ± SD [4] [μm]	water absorption (hygroscopicity) [5]	portion of decomposed active substance [1, 7] [%]	portion of decomposed active substance [1, 8] [%]	portion of decomposed active substance [1, 9] [%]	portion of decomposed active substance [1, 10] [%]	portion of decomposed active substance [1, 11] [%]	portion of decomposed active substance [1, 12] [%]	solubility in citric acid solution [13]	solubility in citric acid solution (Granulation 2 without mannitol)	Molecule	appearance / agglomerates of the salt as produced [2]	further results
–	–	–	–	–	–	–	–	–	–	–	–	–	–	–	–	–	–	–	C#CCN[C@@H]1CCc2ccccc21 [Rasagiline hydrochloride]	–	portion of decomposed active substance ([1]; Direct compression without mannitol, 4 weeks, hydrochloride): 1.5%; portion of decomposed active substance ([1]; Granulation 1 with mannitol (55%), 4 weeks, hydrochloride): 2.4%; portion of decomposed active substance ([1]; Granulation 2 without mannitol, 4 weeks, hydrochloride): 1.9%
unchanged	unchanged	unchanged	does not form any agglomerates	1.2	2.7	98.1	19.9 ± 0.02	53.0 ± 0.09	120.5 ± 0.66	no water absorption	–	–	–	–	–	–	–	–	Rasagiline Oxalate	white crystal powder which is free of agglomerates	solubility ([3]; 0.1 N HCl): 29.9 mg/mL; solubility ([3]; Demineralized water): 19.7 mg/mL; pH of the saturated solution ([3]; USP acetate buffer, pH 4.5): 3.4; solubility ([3]; USP acetate buffer, pH 4.5): 24.3 mg/mL; pH of the saturated solution ([3]; USP phosphate buffer, pH 6.8): 3.4; solubility ([3]; USP phosphate buffer, pH 6.8): 24.2 mg/mL; solubility in words [3]: much more difficult to dissolve
unchanged	unchanged	unchanged	does not form any agglomerates	1.0	4.4	100.0	2.7 ± 0.01	12.8 ± 0.08	35.1 ± 0.36	no water absorption	0.40	0.00	1.4	0.00	0.79	0.00	very high	very high	C#CCN[C@@H]1CCc2ccccc21.C#CCN[C@@H]1CCc2ccccc21.O=S(=O)(O)CCS(=O)(=O)O [Rasagiline edisilate, Rasagiline Edisilate]	white crystal powder which is free of agglomerates	pH of the saturated solution ([3]; USP acetate buffer, pH 4.5): 4.4; pH of the saturated solution ([3]; USP phosphate buffer, pH 6.8): 6.2; solubility in words [3]: dissolves very rapidly and well; appearance ([6]; 4 weeks): unchanged; appearance ([6]; 8 weeks): unchanged; appearance ([6]; 12 weeks): unchanged
unchanged	unchanged	unchanged	–	–	–	97.2	5.0 ± 0.04	40.9 ± 0.57	161.2 ± 1.34	–	2.5	0.00	3.1	0.00	2.8	0.00	–	–	rasagiline tartrate	undesired agglomerates	appearance ([6]; 4 weeks): unchanged; appearance ([6]; 8 weeks): unchanged; appearance ([6]; 12 weeks): unchanged
–	–	–	–	–	–	–	–	–	–	–	2.9	0.00	3.0	0.00	2.5	0.00	high	high	rasagiline phosphate	–	agglomerates after storage [2]: agglomerates; appearance after storage under humid conditions [6]: sticky powder which is difficult to process; total content of chemical contaminations ([6]; 4 weeks): 0.05%; water content ([6]; 4 weeks): 0.2%; total content of chemical contaminations ([6]; 8 weeks): 0.19%; water content ([6]; 8 weeks): 0.4%; total content of chemical contaminations ([6]; t0): 0.0%; water content ([6]; t0): 0.1%

Molecule	appearance ([2]; 4 weeks)	appearance ([2]; 8 weeks)	appearance ([2]; 12 weeks)	formation of agglomerates after long storage [2]	pH of the saturated solution ([3]; 0.1 N HCl)	pH of the saturated solution ([3]; Demineralized water)	fraction ≦ 250 μm [4] [%]	d(0.1) ± SD [4] [μm]	d(0.5) ± SD [4] [μm]	d(0.9) ± SD [4] [μm]	water absorption (hygroscopicity) [5]	portion of decomposed active substance [1, 7] [%]	portion of decomposed active substance [1, 8] [%]	portion of decomposed active substance [1, 9] [%]	portion of decomposed active substance [1, 10] [%]	portion of decomposed active substance [1, 11] [%]	portion of decomposed active substance [1, 12] [%]	solubility in citric acid solution [13]	solubility in citric acid solution (Granulation 2 without mannitol)	appearance / agglomerates of the salt as produced [2]	further results
C#CCN[C@@H]1CCc2ccccc21 [Rasagiline mesylate, rasagiline mesylate]	–	–	–	–	–	–	100.0	13.6 ± 0.05	40.5 ± 0.25	85.7 ± 0.89	absorbed large amounts of water and liquefied	0.46	0.00	2.6	0.00	1.3	0.00	very high	very high	–	agglomerates after storage [2]: agglomerates; appearance after storage under humid conditions [6]: sticky powder which is difficult to process

From patent US8143315B2, “Salts of the active substance rasagiline” (priority 2006, dated 2012)
